Usually EC50 stands for the concentration at which the effect is half-maximal.

Experiment [1] relates to homotetrameric CNGA2RE (R538E) channels. On the set-up: method as in Nache et al., 2012. The following applies: Equation 1, ref Nache et al., 2012; cited from earlier work.
Experiment [2] has as its target T1, CNGA2:B1b channels (Rattus norvegicus, UniProt A0A8I5ZN27+Q00195).
T1 construct: expressed in transfected cells; host or cells: Xenopus laevis oocytes (cRNA injection), excised inside-out patches
Kind of experiment: Concentration-activation relationship, inside-out patch-clamp. The format is biochemical. Here is the method: (§1) Patch-clamp experiments were performed using an Axopatch 200B amplifier (Molecular Devices LLC, CA, U.S.A.) in the inside-out configuration. The patch pipettes for recording of macroscopic currents were pulled from borosilicate glass tubing (outer diameter 2.0 mm, inner diameter 1.0 mm; Hilgenberg GmbH, Germany). […] The patches were formed as pushed inside-out patches. […] Cyclic nucleotide concentration jumps were performed using a double-barreled glass pipette mounted on a piezo-driven device. Intracellular (bath) and extracellular (pipette) solutions contained (mM) 150 KCl, 1 EGTA, 5 Hepes, pH = 7.4 with KOH. […] Currents in the absence of the cyclic nucleotide were subtracted. All patches included in this study were first tested for channel expression in the presence of a saturating ligand concentration. Only patches with large current, i.e. a large number of channels, were included in our statistics. The currents were measured at +10 mV or, if mentioned, at +100 mV. Fits of equations to data points were performed with the 8.1G® software (OriginLab Corporation, Northampton, U.S.A.). Concentration-activation relationships were obtained by relating the actual current amplitude, I, to the maximum current amplitude elicited by a saturating concentration of ligand, Imax, and plotting this ratio as function of the ligand concentration, x. The concentration-activation data were fitted using the Hill equation where EC50 is the ligand concentration of half maximum effect and H the Hill coefficient.
For orientation: The patch-clamp technique gives a direct electrical read-out from membranes.

Experiment [3] deals with T2, CNGA2:A4 channels (Rattus norvegicus, UniProt Q00195+Q64359).
T2 construct: expressed in transfected cells; host or cells: Xenopus laevis oocytes (cRNA injection), excised inside-out patches
The experiment is described as above. The format is biochemical. Here is the method: as §1

The target in experiment [4] is T3, CNGA2:A4:B1b channels (Rattus norvegicus, UniProt A0A8I5ZN27+Q00195+Q64359).
T3 construct: expressed in transfected cells; host or cells: Xenopus laevis oocytes (cRNA injection 2:1:1), excised inside-out patches
Kind of experiment: Activation and deactivation time courses after fast concentration jumps. It is filed as biochemical. The following applies: +10 mV, monoexponential fit. As for the experimental part:
To characterize the contribution of each subunit to the kinetics of channel gating, we also studied activation and deactivation time courses for CNGA2:A4:B1b, CNGA2, CNGA2RE:A4RE:B1b and CNGA2RE:A4:B1b RE channels. Fast concentration jumps from zero to 10 μM cGMP and back to zero were applied with the help of a piezo-driven switch pipette. Activation (Fig. 4a) and deactivation (Fig. 4b) time courses were fitted with a single exponential or the sum of two exponential functions in case of the CNGA2RE:A4RE:B1b channel. The obtained time constants are shown in bar graphs below the traces. In case of the biexponential time courses a mean time constant was obtained according to equation (S1) (Supplementary Information). CNGA2RE:A4RE:B1b channel activation triggered by CNGB1b only is the slowest, followed by that of CNGA4 only in CNGA2RE:A4:B1bRE channels and homotetrameric CNGA2 channels.
Figure 4 Effects of the CNGB1b and CNGA4 subunit on the kinetics of channel activation and deactivation. […]
Patch-clamp experiments were performed using an Axopatch 200B amplifier (Molecular Devices LLC, CA, U.S.A.) in the inside-out configuration. […] The currents were measured at +10 mV or, if mentioned, at +100 mV.

Experiment [5] relates to concatameric homotetrameric CNGA2 channels with three disabled subunits. On the set-up: method as in PMID 26858151. As to conditions: read-out: EC50 of one CNGA2 subunit; cited from earlier work.
Experiment [6] relates to CNGA2TM:A4 channels. On the set-up: method as in PMID 22786723. As to conditions: cited from earlier work.
In experiment [7] the test system is CNGA4. On the set-up: method as in Nache et al., 2012; key: +: ligand binding to the respective modulatory subunits was either observed or not; −: ligand binding to the respective modulatory subunits was either observed or not. As to conditions: 10 μM; construct CNGA4; ref Nache et al., 2012; cited from earlier work.

T2 sequence (Q00195 whole entry): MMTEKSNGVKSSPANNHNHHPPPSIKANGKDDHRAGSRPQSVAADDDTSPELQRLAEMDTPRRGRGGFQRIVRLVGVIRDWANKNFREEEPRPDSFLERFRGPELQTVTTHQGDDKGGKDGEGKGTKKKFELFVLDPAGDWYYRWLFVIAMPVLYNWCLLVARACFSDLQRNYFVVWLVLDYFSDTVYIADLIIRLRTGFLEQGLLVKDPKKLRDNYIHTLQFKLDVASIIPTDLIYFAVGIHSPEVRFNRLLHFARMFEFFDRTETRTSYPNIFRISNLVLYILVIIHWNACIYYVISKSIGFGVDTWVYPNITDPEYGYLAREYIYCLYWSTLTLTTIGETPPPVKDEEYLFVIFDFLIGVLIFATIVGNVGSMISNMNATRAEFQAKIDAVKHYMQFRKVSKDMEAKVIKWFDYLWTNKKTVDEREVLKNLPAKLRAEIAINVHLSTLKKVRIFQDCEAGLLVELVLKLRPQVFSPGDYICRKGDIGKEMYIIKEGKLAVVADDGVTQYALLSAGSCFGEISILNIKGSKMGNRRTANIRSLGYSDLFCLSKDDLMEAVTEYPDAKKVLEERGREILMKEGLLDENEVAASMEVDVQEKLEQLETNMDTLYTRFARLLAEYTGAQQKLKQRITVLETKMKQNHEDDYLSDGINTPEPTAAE
T2 sequence (Q64359 whole entry): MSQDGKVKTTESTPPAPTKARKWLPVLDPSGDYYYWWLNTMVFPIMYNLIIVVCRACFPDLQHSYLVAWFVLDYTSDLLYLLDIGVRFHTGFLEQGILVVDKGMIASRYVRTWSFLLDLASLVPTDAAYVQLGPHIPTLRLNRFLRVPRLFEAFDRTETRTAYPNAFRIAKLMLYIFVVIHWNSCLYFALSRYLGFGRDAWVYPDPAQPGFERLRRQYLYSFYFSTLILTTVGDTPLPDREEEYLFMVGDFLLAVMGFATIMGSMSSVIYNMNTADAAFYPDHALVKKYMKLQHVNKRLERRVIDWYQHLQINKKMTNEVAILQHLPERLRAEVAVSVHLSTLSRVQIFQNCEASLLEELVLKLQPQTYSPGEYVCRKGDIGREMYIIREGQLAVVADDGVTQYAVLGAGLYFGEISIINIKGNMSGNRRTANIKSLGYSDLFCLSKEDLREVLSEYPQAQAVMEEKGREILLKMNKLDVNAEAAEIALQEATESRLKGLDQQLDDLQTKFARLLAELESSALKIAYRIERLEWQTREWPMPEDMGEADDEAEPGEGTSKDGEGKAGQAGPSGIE
T1 sequence (Q00195 whole entry): as the sequence (Q00195 whole entry) above
T1 sequence (A0A8I5ZN27 1-858 isoform A0A8I5ZN27-2): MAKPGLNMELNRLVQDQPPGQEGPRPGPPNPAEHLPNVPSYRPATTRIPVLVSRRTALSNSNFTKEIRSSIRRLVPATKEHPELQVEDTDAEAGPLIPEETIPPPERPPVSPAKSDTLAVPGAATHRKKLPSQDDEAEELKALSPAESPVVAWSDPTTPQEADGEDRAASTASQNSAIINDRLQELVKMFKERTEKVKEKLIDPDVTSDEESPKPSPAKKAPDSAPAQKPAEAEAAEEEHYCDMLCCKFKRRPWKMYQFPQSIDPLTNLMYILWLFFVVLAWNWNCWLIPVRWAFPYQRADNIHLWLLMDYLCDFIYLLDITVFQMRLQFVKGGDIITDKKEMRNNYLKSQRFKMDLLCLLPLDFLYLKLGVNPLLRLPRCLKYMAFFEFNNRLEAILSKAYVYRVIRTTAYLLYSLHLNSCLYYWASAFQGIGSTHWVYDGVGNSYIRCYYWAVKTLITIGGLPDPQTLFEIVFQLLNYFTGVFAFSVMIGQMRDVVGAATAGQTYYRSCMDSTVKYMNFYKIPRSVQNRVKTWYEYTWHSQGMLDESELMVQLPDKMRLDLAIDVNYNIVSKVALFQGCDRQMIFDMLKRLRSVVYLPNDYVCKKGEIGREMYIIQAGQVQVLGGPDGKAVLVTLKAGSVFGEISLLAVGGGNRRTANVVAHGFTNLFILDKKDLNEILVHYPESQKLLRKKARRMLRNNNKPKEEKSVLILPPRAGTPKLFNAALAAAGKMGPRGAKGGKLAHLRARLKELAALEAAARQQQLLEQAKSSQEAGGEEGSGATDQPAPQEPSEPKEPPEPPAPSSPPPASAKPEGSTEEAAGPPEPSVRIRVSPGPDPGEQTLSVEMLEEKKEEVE
T3 sequence (Q00195 whole entry): as the sequence (Q00195 whole entry) above
T3 sequence (Q64359 whole entry): as the sequence (Q64359 whole entry) above
T3 sequence (A0A8I5ZN27 1-858 isoform A0A8I5ZN27-2): as the sequence (A0A8I5ZN27 1-858 isoform A0A8I5ZN27-2) above

On to `Nc1nc2c(ncn2[C@@H]2O[C@@H]3COP(=O)(O)O[C@H]3[C@H]2O)c(=O)[nH]1` [cGMP], for which the EC50 was 607 µM in experiment [1], 1.9 µM in experiment [2] (Equation 1), 1.28 µM in experiment [3] (Equation 1) and 22.2 µM in experiment [5]. For the same compound, the H turned out to be 2.0 in experiment [2] (Hill coefficient) and 1.7 in experiment [3] (Hill coefficient). Further, the deactivation time constant in experiment [4] (concentration jump from 10 μM back to zero) is recorded as ~ 120 ms. The activation time constant in experiment [4] (concentration jump from zero to 10 μM) was ~ 17 ms.

For the compound 8-[DY-547]-AET-cGMP [fcGMP], the “degree of activation induced by binding to CNGA4” value in experiment [6] (CNGA2TM:A4 channels) is ~ 12%. Besides, the EC50 in experiment [6] (in the presence of CNGA2TM only, read-out: EC50,h value for CNGA4) is 6.8 µM. In experiment [7], the “Ligand binding to CNGA4” value was “−”.

Source of the values: article PMC4942689, “Deciphering the function of the CNGB1b subunit in olfactory CNG channels” (Scientific Reports, 2016).
